From patent US12398097B2, “WDR5-MYC inhibitors” (Vanderbilt University, priority 2019, dated 2025)

Target: WDR5 (Homo sapiens, UniProt P61964)
Test: Competition-based fluorescence polarization anisotropy assay
Conditions: binding to WDR5; displacement of FITC-labeled small molecule probe (analogous to Example J2 or HCH-25) or peptide probe FITC-AHx-SEEEIDVVSV; pH 6.0; Ki converted from IC50
Outline: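 Ki values derive from displacement of either a fluorescent small-molecule probe or a FITC-peptide probe from WDR5, monitored by fluorescence polarization. Assay run at pH 6.0 in 200 mM phosphate with 300 mM NaCl, 0.5 mM TCEP and 0.1% Chaps.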

SMILES | Ki
CCN(CC)CCS(=O)(=O)c1cc(Cl)cc(NS(=O)(=O)c2cc(Br)cc(Cl)c2O)c1 [Example S35, 5-Bromo-3-chloro-N-(3-chloro-5-((2-(diethylamino)ethyl)sulfonyl)phenyl)-2-hydroxybenzenesulfonamide] | 340 nM
CC(C)N(CCSc1cc(Cl)cc(NS(=O)(=O)c2cc(Br)cc(Cl)c2O)c1)C(C)C [Example S36, 5-Bromo-3-chloro-N-(3-chloro-5-((2-(diisopropylamino)ethyl)thio)phenyl)-2-hydroxybenzenesulfonamide] | 780 nM
CC(C)N(CCS(=O)(=O)c1cc(Cl)cc(NS(=O)(=O)c2cc(Br)cc(Cl)c2O)c1)C(C)C [Example S37, 5-Bromo-3-chloro-N-(3-chloro-5-((2-(diisopropylamino)ethyl)sulfonyl)phenyl)-2-hydroxybenzenesulfonamide] | 400 nM
CCN(CC)CCS(=O)(=O)c1cc(Cl)cc(NS(=O)(=O)c2cc(Br)ccc2O)c1 [Example S40, 5-Bromo-N-(3-chloro-5-((2-(diethylamino)ethyl)sulfonyl)phenyl)-2-hydroxybenzenesulfonamide] | 4380 nM
CC(C)N(CCS(=O)(=O)c1cc(Cl)cc(NS(=O)(=O)c2cc(Br)ccc2O)c1)C(C)C [Example S41, 5-Bromo-N-(3-chloro-5-((2-(diisopropylamino)ethyl)sulfonyl)phenyl)-2-hydroxybenzenesulfonamide] | 3810 nM
CCN(CC)CCS(=O)(=O)c1cc(Cl)cc(NS(=O)(=O)c2cc(Br)cc3cccnc23)c1 [Example S43, 6-Bromo-N-(3-chloro-5-((2-(diethylamino)ethyl)sulfonyl)phenyl)quinoline-8-sulfonamide] | 31300 nM
CCN(CC)CCS(=O)(=O)c1cc(Cl)cc(NS(=O)(=O)c2cc(Br)ccc2OC)c1 [Example S46, 5-Bromo-N-(3-chloro-5-((2-(diethylamino)ethyl)sulfonyl)phenyl)-2-methoxybenzenesulfonamide] | 20600 nM
COc1ccc(Br)cc1S(=O)(=O)Nc1cc(Cl)cc(S(C)(=O)=O)c1O [Example S49, 5-Bromo-N-(5-chloro-2-hydroxy-3-(methylsulfonyl)phenyl)-2-methoxybenzenesulfonamide] | 290 nM
CN(C)CCCS(=O)(=O)c1cc(Cl)cc(NS(=O)(=O)c2cc(Br)cc(Cl)c2O)c1 [Example S51, 5-Bromo-3-chloro-N-(3-chloro-5-((3-(dimethylamino)propyl)sulfonyl)phenyl)-2-hydroxybenzenesulfonamide] | 1450 nM
CN(C)CCCS(=O)(=O)c1cc(Cl)cc(NS(=O)(=O)c2cc(Br)ccc2O)c1 [Example S52, 5-Bromo-N-(3-chloro-5-((3-(dimethylamino)propyl)sulfonyl)phenyl)-2-hydroxybenzenesulfonamide] | 830 nM
CS(=O)(=O)c1cc(Cl)cc(NS(=O)(=O)c2cc(Br)cc(Cl)c2O)c1F [Example S54, 5-Bromo-3-chloro-N-(5-chloro-2-fluoro-3-(methylsulfonyl)phenyl)-2-hydroxybenzenesulfonamide] | 800 nM
CS(=O)(=O)c1cc(Cl)cc(NS(=O)(=O)c2cc(Br)cc3c2OCC3)c1O [Example S55, 5-Bromo-N-(5-chloro-2-hydroxy-3-(methylsulfonyl)phenyl)-2,3-dihydrobenzofuran-7-sulfonamide] | 850 nM
COc1ccc(Br)cc1S(=O)(=O)Nc1cc(C2(C#N)CCC2)cc(S(C)(=O)=O)c1O [Example S59, 5-Bromo-N-(5-(1-cyanocyclobutyl)-2-hydroxy-3-(methylsulfonyl)phenyl)-2-methoxybenzenesulfonamide] | 310 nM
CS(=O)(=O)c1cc(C2(C#N)CCC2)cc(NS(=O)(=O)c2cc(Br)cc(Cl)c2O)c1O [Example S60, 5-Bromo-3-chloro-N-(5-(1-cyanocyclobutyl)-2-hydroxy-3-(methylsulfonyl)phenyl)-2-hydroxybenzenesulfonamide] | 50 nM
CS(=O)(=O)c1cc(C2(C#N)CCC2)cc(NS(=O)(=O)c2cc(Br)cc3cccnc23)c1O [Example S61, 6-Bromo-N-(5-(1-cyanocyclobutyl)-2-hydroxy-3-(methylsulfonyl)phenyl)quinoline-8-sulfonamide] | 190 nM
CNC(=O)c1cc(S(F)(F)(F)(F)F)cc(NS(=O)(=O)c2cc(Br)cc(Cl)c2O)c1O [Example S63, 3-((5-Bromo-3-chloro-2-hydroxyphenyl)sulfonamido)-2-hydroxy-N-methyl-5-(pentafluoro-λ^6-sulfaneyl)benzamide] | 160 nM
O=C(O)c1cc(S(F)(F)(F)(F)F)cc(NS(=O)(=O)c2cc(Br)cc(Cl)c2O)c1O [Example S64, 3-((5-Bromo-3-chloro-2-hydroxyphenyl)sulfonamido)-2-hydroxy-5-(pentafluoro-λ^6-sulfaneyl)benzoic acid] | 20 nM
O=C(O)c1cc(S(F)(F)(F)(F)F)cc(NS(=O)(=O)c2cc(Br)ccc2O)c1O [Example S65, 3-((5-Bromo-2-hydroxyphenyl)sulfonamido)-2-hydroxy-5-(pentafluoro-λ^6-sulfaneyl)benzoic acid] | 30 nM
CNC(=O)c1cc(S(F)(F)(F)(F)F)cc(NS(=O)(=O)c2cc(Br)ccc2O)c1O [Example S66, 3-((5-Bromo-2-hydroxyphenyl)sulfonamido)-2-hydroxy-N-methyl-5-(pentafluoro-λ^6-sulfaneyl)benzamide] | 20 nM

SMILES | Ki
CNC(=O)c1cc(S(F)(F)(F)(F)F)cc(NS(=O)(=O)c2cc(Br)cc3cccnc23)c1O [Example S67] | 90 nM
O=C(O)c1cc(S(F)(F)(F)(F)F)cc(NS(=O)(=O)c2cc(Br)cc3cccnc23)c1O [Example S68] | 20 nM
CNC(=O)c1cc(Cl)cc(NS(=O)(=O)c2cc(Br)cc(Cl)c2O)c1 [Example S69, 3-((5-Bromo-3-chloro-2-hydroxyphenyl)sulfonamido)-5-chloro-N-methylbenzamide] | 770 nM
CNC(=O)c1cc(Cl)cc(NS(=O)(=O)c2cc(Br)ccc2O)c1 [Example S70, 3-((5-Bromo-2-hydroxyphenyl)sulfonamido)-5-chloro-N-methylbenzamide] | 2930 nM
N#CC1(c2cc(NS(=O)(=O)c3cc(Br)cc(Cl)c3O)cc(C(=O)O)c2)CCC1 [Example S71, 3-((5-Bromo-3-chloro-2-hydroxyphenyl)sulfonamido)-5-(1-cyanocyclobutyl)benzoic acid] | 10 nM
CS(=O)(=O)c1cc(NS(=O)(=O)c2cc(Br)cc(Cl)c2O)cc(C2(C#N)CCC2)c1 [Example S72, 5-Bromo-3-chloro-N-(3-(1-cyanocyclobutyl)-5-(methylsulfonyl)phenyl)-2-hydroxybenzenesulfonamide] | 150 nM
CS(=O)(=O)c1cc(NS(=O)(=O)c2cc(Br)ccc2O)cc(C2(C#N)CCC2)c1 [Example S73, 5-bromo-N-(3-(1-cyanocyclobutyl)-5-(methylsulfonyl)phenyl)-2-hydroxybenzenesulfonamide] | 1030 nM
O=C(O)CNC(=O)c1cc(OC(F)(F)F)cc(NS(=O)(=O)c2cc(Br)ccc2O)c1O [HCH-1, (3-((5-Bromo-2-hydroxyphenyl)sulfonamido)-2-hydroxy-5-(trifluoromethoxy)benzoyl)glycine] | 650 nM
O=S(=O)(Nc1cc(Cl)ccc1O)c1cccc(Br)c1 [HCH-1-9-4re, 3-Bromo-N-(5-chloro-2-hydroxyphenyl)benzenesulfonamide] | 36100 nM
O=S(=O)(Nc1cc(Cl)ccc1O)c1cc(Br)ccc1O [HCH-1-143-2, 5-Bromo-N-(5-chloro-2-hydroxyphenyl)-2-hydroxybenzenesulfonamide] | 1250 nM
CCc1cc(Br)cc(S(=O)(=O)Nc2cc(Cl)cc(C(=O)NCC3(O)CCN(C)CC3)c2O)c1O [HCH-2, 3-((5-Bromo-3-ethyl-2-hydroxyphenyl)sulfonamido)-5-chloro-2-hydroxy-N-((4-hydroxy-1-methylpiperidin-4-yl)methyl)benzamide] | 600 nM
O=S(=O)(Nc1cc(OC(F)(F)F)ccc1O)c1cc(Br)ccc1O [HCH-3-48-1, 5-Bromo-2-hydroxy-N-(2-hydroxy-5-(trifluoromethoxy)phenyl)benzenesulfonamide] | 550 nM
NC(=O)c1cc(OC(F)(F)F)cc(NS(=O)(=O)c2cc(Br)cc(CCCO)c2O)c1O [HCH-4, 3-((5-Bromo-2-hydroxy-3-(3-hydroxypropyl)phenyl)sulfonamido)-2-hydroxy-5-(trifluoromethoxy)benzamide] | 580 nM
O=C(NC1COC1)c1cc(OC(F)(F)F)cc(NS(=O)(=O)c2cc(Br)ccc2O)c1O [HCH-9, 3-((5-Bromo-2-hydroxyphenyl)sulfonamido)-2-hydroxy-N-(oxetan-3-yl)-5-(trifluoromethoxy)benzamide] | 380 nM
CCc1cc(Br)cc(S(=O)(=O)Nc2cc(Cl)cc(C(=O)O)c2O)c1O [HCH-11, 3-((5-Bromo-3-ethyl-2-hydroxyphenyl)sulfonamido)-5-chloro-2-hydroxybenzoic acid] | 460 nM
CCc1cc(NS(=O)(=O)c2cc(Br)cc(CC)c2O)c(O)c(C(=O)O)c1 [HCH-12, 3-((5-bromo-3-ethyl-2-hydroxyphenyl)sulfonamido)-5-ethyl-2-hydroxybenzoic acid] | 200 nM
CCc1cc(NS(=O)(=O)c2cc(Br)cc(OC(F)(F)F)c2O)c(O)c(C(=O)O)c1 [HCH-13, 3-((5-Bromo-2-hydroxy-3-(trifluoromethoxy)phenyl)sulfonamido)-5-ethyl-2-hydroxybenzoic acid] | 220 nM
CCc1cc(Br)cc(S(=O)(=O)Nc2cc(OC(F)(F)F)cc(C(=O)O)c2O)c1O [HCH-14, 3-((5-Bromo-3-ethyl-2-hydroxyphenyl)sulfonamido)-2-hydroxy-5-(trifluoromethoxy)benzoic acid] | 130 nM
O=C(O)c1cc(OC(F)(F)F)cc(NS(=O)(=O)c2cc(Br)cc(OC(F)(F)F)c2O)c1O [HCH-15, 3-((5-Bromo-2-hydroxy-3-(trifluoromethoxy)phenyl)sulfonamido)-2-hydroxy-5-(trifluoromethoxy)benzoic acid] | 170 nM
